Measured values reported in patent publication US5225417A, “Opioid agonist compounds” (priority 1992, dated 1993).
Where a name gives a salt, the structure may show the parent alone. Read-outs that look alike come from different tables or passages of the source.

Key:
μ opioid receptor = μ opioid receptor (Rattus norvegicus, UniProt P33535); assay: Opiate Binding Assay, μ receptor (3[H]-DAMGO displacement)
δ opioid receptor = δ opioid receptor (Rattus norvegicus, UniProt P33533); assay: Opiate Binding Assay, δ receptor (3[H]-DSLET displacement); details: for Mean IC50 μ/δ Ratio: ratio of mean IC50 values for μ and δ opioid receptors
δ opioid receptor, sequence (P33533 whole entry): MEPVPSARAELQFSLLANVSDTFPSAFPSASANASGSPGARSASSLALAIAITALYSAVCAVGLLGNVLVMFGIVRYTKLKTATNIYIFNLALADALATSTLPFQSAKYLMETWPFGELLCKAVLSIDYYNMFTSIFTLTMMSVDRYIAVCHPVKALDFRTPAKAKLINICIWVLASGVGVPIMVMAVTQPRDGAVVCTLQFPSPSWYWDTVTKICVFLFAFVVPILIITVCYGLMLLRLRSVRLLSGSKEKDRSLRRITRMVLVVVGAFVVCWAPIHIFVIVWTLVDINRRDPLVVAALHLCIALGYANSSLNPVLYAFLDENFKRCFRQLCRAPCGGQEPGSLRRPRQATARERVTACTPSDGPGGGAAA

mice = assay: PBQ Writhing Assay; type: in vivo, Charles River male albino mice; details: for ED50: Mus musculus, 0.5 h
Source text: The Writhing Assay is one of the most widely-used experimental procedures for measuring the analgesic activity of different narcotic and nonnarcotic analgesic agents, and involves the continuous, chemically-induced pain of visceral origin to an animal, such as a mouse or rat. [Gyires et al., Arch. int. Pharmacodyn, 267, 131-140 (1984); C. Vander Wende et al., Fed. Proc., 15, 494 (1956); Koster et al. Fed. Proc. 18 412 (1959); and Witken et al., J. Pharmacol. exp. Ther., 133, 400-408 (1961).] Chemicals which may be used to induce this pain include phenylbenzoquinone (PBQ) and acetic acid. As a result of the chemical irritation to the animal, a characteristic stretching and writhing of the animal (dorsiflexion of the animal's back, extension of its hindlimbs and the strong contraction of its abdominal musculature) will generally occur. […] Drugs which reduce the number of writhes of the animal appear to restore the normal nociceptive threshold of the animal.
Charles River male albino mice, weighing 20 to 30 grams were used in this assay.
Thirty minutes after subcutaneous or intragastric administration to ten mice of either 10 mg or 30 mg per kilogram of body weight of a compound of the present invention ("test compound"), […] of body weight of a 0.025% w/v solution of PBQ was injected intraperitoneally into each mouse. Ten mice which were given saline in place of a test compound of the invention were used as a control group.
Five minutes later, each mouse was individually placed into a glass beaker for observation, and the number of writhes occurring during the following ten-minute period was counted.
A test compound was considered to be "active" in this assay (to have produced analgesia in a mouse) if, after the administration of the compound to the mouse, the number of writhes elicited by a mouse injected with PBQ was equal to, or less than, one-half the median number of writhes recorded for the saline-treated control group of mice that day, as described by Taber in "Predictive Value of Analgesic Assays in Mice and Rats," Advances in Biochemical Psychopharmacology, 8, 191 (1974).
The standard initial screening doses of a test compound employed in this assay were 10 and/or 30 […] for both routes of administration.

mice or rats = assay: Tail Flick Assay; type: in vivo
Source text: The "Tail Flick Assay" uses thermal pain of transient duration, and is a test in which the pain threshold of the mice or rats being analyzed has not been altered. It is useful for evaluating the ability of a compound or drug to increase the animal's pain threshold (i.e. prolong response latencies), rather than to restore normal thresholds.
The heat-induced response to the Tail Flick Assay is a reflex reaction mediated at the level of the spinal cord.
Opiate compounds having clinical efficacy as analgesics generally increase tail flick latencies. Thus, morphine and codeine are generally determined to be active in this test.
The Tail Flick Assay was performed generally in the manner described by G. Woolfe et al., "The Evaluation of the Analgesic Action of Pethidine Hydrochloride (Demerol)," J. Pharmacol. Exp. Ther., 80, 300, (1944), F. D'Amour et al., "A Method for Determining Loss of Pain Sensation," J. Pharmacol. Exp. Ther., 72, 74, 300-307 (1941), and E. Drower et al., "The Antinociceptive Effects of Prostaglandin Antagonists in the Rat," European Journal of Pharmacology, 133, 249-256 (1987).
Male Charles River albino mice and male Charles River Sprague-Dawley rats weighing 20 to 30 g and 200 to 250 g, respectively, was employed in this assay.
Tail flick response latencies (defined as the time that elapsed between the onset of a high intensity beam of light and the reflex removal of the mouse or rat's tail) was measured before (baseline) and again at fixed intervals after subcutaneous or intracerebro-ventricular administration of one of the compounds of the invention, or after the administration of saline (controls). The cut-off latencies established to prevent tissue damage in the animals are 12 seconds or 14 seconds in the mouse and rat, respectively, in the Tail Flick Assay. The significance of any increase in tail flick response latency is determined using analyses of variance.
One way analyses of variance were used to determine the significance of the effect of the compounds of the invention on response latencies.
"Activity" or "Inactivity" was determined at a particular concentration of the compound by a significant increase in tail flick latency above normal latencies.
The numbers in parentheses are calculated ED50 values.

[1] = rat forebrain membranes, 3[H]-DAMGO 2.0 nM, 37° C., pH 7.4
[2] = read-out: Mean IC50 Value, δ, rat forebrain membranes, 3[H]-DSLET 1.0 nM, 37° C., pH 7.4
[3] = sc, subcutaneous, mice, 30 min before PBQ, read-out: PBQ writhing assay ED50, S.C.

μ opioid receptor, sequence (P33535 whole entry): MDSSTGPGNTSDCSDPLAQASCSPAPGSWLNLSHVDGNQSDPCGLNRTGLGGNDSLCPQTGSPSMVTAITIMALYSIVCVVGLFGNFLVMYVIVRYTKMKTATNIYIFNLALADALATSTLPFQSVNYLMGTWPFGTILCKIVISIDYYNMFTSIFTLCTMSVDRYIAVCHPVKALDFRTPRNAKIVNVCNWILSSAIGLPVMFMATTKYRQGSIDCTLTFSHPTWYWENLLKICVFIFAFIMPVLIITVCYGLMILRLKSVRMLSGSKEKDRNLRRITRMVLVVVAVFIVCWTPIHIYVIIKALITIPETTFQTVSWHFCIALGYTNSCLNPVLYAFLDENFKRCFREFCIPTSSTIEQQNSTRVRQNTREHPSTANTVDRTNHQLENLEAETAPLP

Row | Compound | IC50 (μ opioid receptor) [nM] | IC50 (δ opioid receptor) [nM] | Mean IC50 μ/δ Ratio (δ opioid receptor) | further results
1 | 7-(3-Furanylmethyl)-5,6,7,8,14,14bβ-hexahydro-4,8(R,α)-methano-4bS*-benzofuro[2,3-a]pyrido [4,3-b]carbazole-1,8aβ(9H)-diol, hydrochloride [Example XIV] | – | – | – | Mean IC50 Value, μ (μ opioid receptor; [1]): inactive; IC50 (δ opioid receptor; [2]): 31.8 nM
2 | CC(=O)Oc1ccc2c3c1O[C@H]1c4oc5ccccc5c4C[C@@]4(OC(C)=O)[C@@H](C2)N(C#N)CC[C@]314 (relative stereo) [Example I, 1,8aβ-Bis(acetyloxy)-5,6,8,8a,9,14bβ-hexahydro-4,8(R,α)-methano-4bS*-7H-bisbenzofuro [3,2-e:2',3'-g]isoquinoline-7-carbonitrile] | – | – | – | inhibition at 0.1 µM (δ opioid receptor; read-out: Percent Displacement, δ at 100 nM): 14%; ED50 (mice; [3]): 2.4 mg/kg; PBQ writhing assay ED50, I.G. (mice; intragastric, mice, 30 min before PBQ): inactive
3 | Oc1ccc2c3c1O[C@H]1c4oc5ccccc5c4C[C@@]4(O)[C@@H](C2)NCC[C@]314 (relative stereo) [Example II, 6,7,8,14bβ-Tetrahydro-4,8(R,α)-methano-4bS*-5H-bisbenzofuro[3,2-e:2',3'-g]isoquinoline-1,8aβ(9H)-diol] | 291 | 6.5 | 45 | Percent Displacement, μ (μ opioid receptor; μ receptor, 3[H]-DAMGO 2.0 nM, test concentration not given): 2; Number of mice in 10 exhibiting inhibition of writhing, I.G. (mice; intragastric, dose not stated in table (screening doses 10 and/or 30 mpk)): 4/10; Number of mice in 10 exhibiting inhibition of writhing, S.C. (mice; subcutaneous, dose not stated in table (screening doses 10 and/or 30 mpk)): 4/10
4 | CC(C)=CCN1CC[C@]23c4c5ccc(O)c4O[C@H]2c2oc4ccccc4c2C[C@@]3(O)[C@H]1C5 (relative stereo) [Example III, 6,7,8,14bβ-tetrahydro-7-(3-methyl-2-butenyl)-4,8 (R,α)-methano-4bS*-5H-bisbenzofuro[3,2-e:2',3'-g]isoquinoline-1,aβ(9H)-diol, monohydrochloride] | 4670 | 51.1 | 91 | –
5 | CCOC(=O)CN1CC[C@]23c4c5ccc(O)c4O[C@H]2c2oc4ccccc4c2C[C@@]3(O)[C@H]1C5 (relative stereo) [Example IV, Ethyl 5,6,8,8a,9,14bβ-hexahydro-1,8aβ-dihydroxy-4,8(R,α)-methano-4bS*-7H-bisbenzofuro [3,2-e:2',3'-g]isoquinoline-7-acetate, hydrochloride] | > 10000 | 11.8 | > 850 | –
6 | CO[C@@]12Cc3c(oc4ccccc34)[C@@H]3Oc4c(O)ccc5c4[C@@]31CCN(C)[C@@H]2C5 (relative stereo) [Example IX, 6,7,8,8a,9,14b-hexahydro-8aβ-methoxy-7-methyl-4,8(R,α)-methano-4bS*-5H-bisbenzofuro [3,2-e:2',3'-g]isoquinolin-1-ol, monohydrochloride] | 430 | 1 | 430 | Tail flick activity, intracerebroventricular (mice or rats; intracerebroventricular): 10.5 nmol; active dose in tail flick, intracerebroventricularly (mice or rats; intracerebroventricular): ca. 10 nmoles; Tail flick activity, subcutaneous (active at) (mice or rats; subcutaneous): > 30 mpk
7 | CN1CC[C@]23c4c5ccc(O)c4O[C@H]2c2[nH]c4ccc(C(=O)O)cc4c2C[C@@]3(O)[C@H]1C5 (relative stereo) [Example V, 5,6,7,8,8a,9,14,14bβ-Octahydro-1,8aβ-dihydroxy-7-methyl-4,8(R,α)-methano-4bS*-benzofuro [2,3-a]pyrido [4,3-b]carbazole-11-carboxylic acid, monohydrochloride] | 810 | 660 | 1.2 | ED50 (mice; po, intragastric, mice, 30 min before PBQ, read-out: PBQ writhing assay ED50, I.G.): 3.4 mg/kg; ED50 (mice; [3]): 1.3 mg/kg
8 | CCOC(=O)c1ccc2[nH]c3c(c2c1)C[C@@]1(O)[C@H]2Cc4ccc(O)c5c4[C@@]1(CCN2C)[C@H]3O5 (relative stereo) [Example VI, Ethyl 5,6,7,8,8a,9,14,14bβ-Octahydro1,8αP-dihydroxy-7-methyl-4,8(R,α)methano-4bS*-benzofuro [2,3-a]pyrido[4,3-b]carbazole-11-carboxylate, monohydrochloride] | – | – | 3.8 | IC50 (μ opioid receptor; read-out: Mean IC50 Value, μ, rat forebrain membranes, 3[H]-DAMGO 2.0 nM, 37° C., pH 7.4): 248 nM; IC50 (δ opioid receptor; [2]): 65 nM
9 | Oc1ccc2c3c1O[C@H]1c4oc5ccccc5c4C[C@@]4(O)[C@@H](C2)N(CCc2ccccc2)CC[C@]314 (relative stereo) [Example VII, 6,7,8,14bβ-tetrahydro-7-(2-phenylethyl)-4,8(R,α)-methano-4bS*-5H-bisbenzofuro [3,2-e:2',3'-g]isoquinoline-1,8aβ(9H)-diol, hydrochloride] | – | 34.5 | – | inhibition at 1 µM (μ opioid receptor; read-out: Percent Displacement, μ at 1 μM): 35%
10 | O=C(O)CN1CC[C@]23c4c5ccc(O)c4O[C@H]2c2oc4ccccc4c2C[C@@]3(O)[C@H]1C5 (relative stereo) [Example VIII, 5,6,8,8a,9,14bβ-Hexahydro-1,8aβ-dihydroxy-4,8 (R,α)-methano-4bS*-7H-bisbenzofuro[3,2-e:2',3'-g]isoquinoline-7-acetic acid, hydrochloride] | 4000 | 160 | 25 | –
11 | CN1CC[C@]23c4c5ccc(O)c4O[C@H]2c2oc4ccccc4c2C[C@@]3(OCc2ccccc2)[C@H]1C5 (relative stereo) [Example X, 6,7,8,8a,9,14bβ-hexahydro-7-methyl-8aβ-(phenylmethoxy)-4,8(R,α)-methano-4bS*-5H-bisbenzofuro[3,2-e:2',3'-g]isoquinolin-1-ol, monohydrochloride] | 356 | 8 | 44 | –
12 | CN1CC[C@]23c4c5ccc(O)c4O[C@H]2c2[nH]c4c(I)cccc4c2C[C@@]3(O)[C@H]1C5 (relative stereo) [Example XII, 5,6,7,8,14,14bβ-Hexahydro-13-iodo-7-methyl-4,8 (R,α)-methano-4bS*-benzofuro[2,3-a]pyrido[4,3-b]carbazole-1,8aβ(9H)-diol, monohydrochloride] | 101 | 9.5 | 10.6 | –
13 | OCc1ccc(CN2CC[C@]34c5c6ccc(O)c5O[C@H]3c3oc5ccccc5c3C[C@@]4(O)[C@H]2C6)o1 (relative stereo) [Example XIII, 5,6,7,8,14,14bβ-Hexahydro-7-[[5-(hydroxymethyl)-2-furanyl]methyl]-4,8(R,α)-methano-4b S*-benzofuro[2,3-a]pyrido[4,3-b]carbazole-1,8aβ(9H)-diol, monohydrochloride] | – | ~100 | – | Mean IC50 Value, μ (μ opioid receptor; [1]): inactive
14 | Oc1ccc2c3c1O[C@H]1c4oc5ccccc5c4C[C@@]4(O)[C@@H](C2)N(Cc2ccccc2)CC[C@]314 (relative stereo) [Example XVI, 6,7,8,14bβ-Tetrahydro-7-(2-phenylmethyl)-4,8 (R,α)-methano-4bS*-5H-bisbenzofuro [3,2-e:2',3'-g]isoquinoline-1,8aβ(9H)-diol] | – | – | – | Mean IC50 Value, μ (μ opioid receptor; [1]): inactive; inhibition at 0.05 µM (δ opioid receptor; read-out: Percent Displacement, δ at 50 nM): 50%
